Results: patent US4226610A, “Herbicidal compounds, preparation thereof and herbicides containing the same” (Meiji Selka Kaisha, Ltd., priority 1978, dated 1980)
Counter-ions that a name gives are not always drawn.

System: water hyacinth
Assay: Experiment 5 foliar application to water hyacinths
Assay type: in vivo, Eichhornia crassipes Solms
Parameters: key to Killing index: 0 = no effect, 5 = death
Conditions: for Reproduction-inhibiting effect: 3 months; for Killing index: 21 days
Description: The detail of the assessment made in the following Experiments of the invention was as follows:
Four months after treatment, evaluation was made for inhibition of reproduction expressed in terms of symbols ranging from (-) to (+++) where (-) means no reproduction, namely complete suppression of reproduction, (±) remarkable suppression of reproduction; (+) considerable suppression of reproduction; (++) medium supprestion of reproduction; and (+++) no suppression of reproduction.
Water was placed in 20 cm.×30 cm. plastic vessels and a liquid fertilizer was added thereto. Two water hyacinths were floated in each vessel.
0.1 or 0.2% aqueous solutions of each of the compounds of the invention listed in Table 7 were sprayed by foliar application in an amount of 100 liter per 10 are. As a surfactant, 0.1% of octylphenyl polyoxyethanol was added.
The killing index (0, no effect; 5, death) after 21 days and 3 months, and the reproduction-inhibiting effect (-, no reproduction; +++, maximum reproduction) after 3 months were determined.

Structure (SMILES)	Reproduction-inhibiting effect (0.1%)	Reproduction-inhibiting effect (0.2%)	Killing index (0.2%)
CP(=O)(O)CCC(N)C(=O)O (racemic) [DL-AMPB diammonium salt]	++	±	
CP(=O)(O)CCC(N)C(=O)O (racemic) [DL-AMPB dipotassium salt]	++	±	
CP(=O)(O)CCC(N)C(=O)O (racemic) [DL-AMPB disodium salt]	++	±	
CP(=O)(O)CCC(N)C(=O)O (racemic) [DL-AMPB mono-n-butylammonium salt]	++	±	
CP(=O)(O)CCC(N)C(=O)O (racemic) [DL-AMPB monodiethylammonium salt]	++	±	
CP(=O)(O)CCC(N)C(=O)O (racemic) [DL-AMPB monoisopropylammonium salt]	++	±	
CP(=O)(O)CCC(N)C(=O)O (racemic) [DL-AMPB monopotassium salt]	++	±	
CP(=O)(O)CCC(N)C(=O)O (racemic) [DL-AMPB, DL-2-amino-4-methylphosphinobutanoic acid]	++	±	
CP(=O)(O)CC[C@H](N)C(=O)O [L-AMPB diammonium salt]	±	-	
CP(=O)(O)CC[C@H](N)C(=O)O [L-AMPB dipotassium salt]	±	-	
CP(=O)(O)CC[C@H](N)C(=O)O [L-AMPB disodium salt]	±	-	
CP(=O)(O)CC[C@H](N)C(=O)O [L-AMPB mono-n-butylammonium salt]	±	-	
CP(=O)(O)CC[C@H](N)C(=O)O [L-AMPB monodiethylammonium salt]	±	-	
CP(=O)(O)CC[C@H](N)C(=O)O [L-AMPB monoisopropylammonium salt]	±	-	
CP(=O)(O)CC[C@H](N)C(=O)O [L-AMPB monopotassium salt]	±	-	
CP(=O)(O)CC[C@H](N)C(=O)O [L-AMPB, L-2-amino-4-methylphosphinobutanoic acid]	±	-	
C[C@H](NC(=O)[C@H](C)NC(=O)[C@@H](N)CCP(C)(=O)O)C(=O)O [SF-1293 diammonium salt]	+	-	4.5
C[C@H](NC(=O)[C@H](C)NC(=O)[C@@H](N)CCP(C)(=O)O)C(=O)O [SF-1293 dipotassium salt]	+	-	4.5
C[C@H](NC(=O)[C@H](C)NC(=O)[C@@H](N)CCP(C)(=O)O)C(=O)O [SF-1293 disodium salt]	+	-	4.5
C[C@H](NC(=O)[C@H](C)NC(=O)[C@@H](N)CCP(C)(=O)O)C(=O)O [SF-1293 mono-n-butylammonium salt]	+	-	4.5
C[C@H](NC(=O)[C@H](C)NC(=O)[C@@H](N)CCP(C)(=O)O)C(=O)O [SF-1293 monodiethylammonium salt]	+	-	4.5
C[C@H](NC(=O)[C@H](C)NC(=O)[C@@H](N)CCP(C)(=O)O)C(=O)O [SF-1293 monodiisopropylammonium salt]	+	-	4.5
C[C@H](NC(=O)[C@H](C)NC(=O)[C@@H](N)CCP(C)(=O)O)C(=O)O [SF-1293 monopotassium salt]	+	-	4.5
C[C@H](NC(=O)[C@H](C)NC(=O)[C@@H](N)CCP(C)(=O)O)C(=O)O [SF-1293, (L-2-amino-4-methylphosphinobutyryl)-L-alanyl-L-alanine]	+	-	4.5
